Reference: the NIST ThermoML archive (doi:10.1021/je201211f)

Key:
[1] = refractive index (Na D-line) (dimensionless); xn = mol fraction of the nth substance listed; settings: 298.15 K, 101 kPa, Liquid
[2] = xn = mol fraction of the nth substance listed; settings: 101 kPa, Liquid; for mass density: Vibrating tube method; for viscosity: Capillary tube (Ostwald / Ubbelohde) method
[3] = 298.15 K, 101.33 kPa, Liquid; for viscosity: Capillary tube (Ostwald / Ubbelohde) method; for mass density: Vibrating tube method
[4] = refractive index (Na D-line) (dimensionless); settings: 298.15 K; 101.33 kPa; Liquid; Standard Abbe refractometry

Cc1ccccc1C [1,2-dimethylbenzene] + CC(=O)O
[1]
Settings	refractive index
x2 = 0.0852	1.4965
x2 = 0.1881	1.4875
x2 = 0.2447	1.4816
x2 = 0.3206	1.4747
x2 = 0.3894	1.4672
x2 = 0.4729	1.4579
x2 = 0.5569	1.4472
x2 = 0.636	1.4363
x2 = 0.7151	1.424
x2 = 0.8031	1.4099
x2 = 0.8817	1.3951
x2 = 0.9589	1.379

[2]
Settings	mass density, 293.15 K [kg/m3]	mass density, 298.15 K [kg/m3]	mass density, 303.15 K [kg/m3]	viscosity, 298.15 K [mPa·s]
x2 = 0.0479	882.96	878.72	874.46	–
x2 = 0.0852	–	–	–	0.7491
x2 = 0.1264	888.76	884.42	880.07	–
x2 = 0.1881	–	–	–	0.7412
x2 = 0.2399	898.21	893.74	889.26	–
x2 = 0.2447	–	–	–	0.7448
x2 = 0.2632	900.31	895.82	891.31	–
x2 = 0.3036	904.17	899.62	895.06	–
x2 = 0.3206	–	–	–	0.7457
x2 = 0.3894	–	–	–	0.7476
x2 = 0.4089	915.71	911.04	906.34	–
x2 = 0.4323	918.49	913.77	909.03	–
x2 = 0.4729	–	–	–	0.7532
x2 = 0.479	924.47	919.7	914.91	–
x2 = 0.5609	935.9	930.9	926.08	–
x2 = 0.5694	–	–	–	0.7667
x2 = 0.6332	947.71	942.68	937.66	–
x2 = 0.6388	–	–	–	0.7838
x2 = 0.7151	–	–	–	0.8113
x2 = 0.7184	964.07	958.92	953.75	–
x2 = 0.7912	980.62	975.33	970.03	–
x2 = 0.8031	–	–	–	0.8592
x2 = 0.8814	1005.53	1000.08	994.74	–
x2 = 0.8817	–	–	–	0.9274
x2 = 0.9589	–	–	–	1.035
x2 = 0.9652	1034.87	1029.28	1023.69	–

Cc1ccccc1C [1,2-dimethylbenzene]
Settings	mass density [kg/m3]	refractive index	viscosity [mPa·s]
[3]	875.57	–	0.757
[4]	–	1.5024	–

Cc1cccc(C)c1 [1,3-dimethylbenzene] + CC(=O)O
[1]
Settings	refractive index
x2 = 0.0962	1.4877
x2 = 0.1625	1.4829
x2 = 0.3223	1.4682
x2 = 0.3797	1.4616
x2 = 0.4773	1.4523
x2 = 0.557	1.4424
x2 = 0.6405	1.4319
x2 = 0.7182	1.421
x2 = 0.7955	1.4066
x2 = 0.8721	1.3931
x2 = 0.9649	1.3773

[2]
Settings	mass density, 293.15 K [kg/m3]	mass density, 298.15 K [kg/m3]	mass density, 303.15 K [kg/m3]	viscosity, 298.15 K [mPa·s]
x2 = 0.0777	869.99	865.62	861.24	–
x2 = 0.0962	–	–	–	0.5885
x2 = 0.1623	876.98	872.54	–	–
x2 = 0.1625	–	–	–	0.5929
x2 = 0.2143	881.73	877.22	872.69	–
x2 = 0.2833	888.6	884	879.39	–
x2 = 0.3223	–	–	–	0.6061
x2 = 0.35	895.97	891.29	886.59	–
x2 = 0.3797	–	–	–	0.6144
x2 = 0.3896	900.67	895.94	891.18	–
x2 = 0.4773	–	–	–	0.6308
x2 = 0.4801	912.73	907.88	903	–
x2 = 0.557	–	–	–	0.6504
x2 = 0.5621	925.38	920.41	915.43	–
x2 = 0.6204	935.7	930.66	925.59	–
x2 = 0.6405	–	–	–	0.6798
x2 = 0.7182	–	–	–	0.7206
x2 = 0.7214	956.29	951.08	945.86	–
x2 = 0.7955	–	–	–	0.7754
x2 = 0.8155	980.67	975.31	969.94	–
x2 = 0.8721	–	–	–	0.8578
x2 = 0.8758	999.34	993.89	988.44	–
x2 = 0.9649	–	–	–	1.023
x2 = 0.9672	1034.28	1028.66	1023.08	–

ClC=C(Cl)Cl [trichloroethene]
Settings	mass density [kg/m3]	refractive index	viscosity [mPa·s]
[3]	1455.53	–	0.582
[4]	–	1.475	–

ClC=C(Cl)Cl [trichloroethene] + Cc1ccccc1C
[1]
Settings	refractive index
x1 = 0.0721	1.501
x1 = 0.1615	1.499
x1 = 0.2437	1.4973
x1 = 0.3075	1.4958
x1 = 0.3957	1.4936
x1 = 0.4824	1.4917
x1 = 0.5643	1.4896
x1 = 0.6346	1.4875
x1 = 0.7158	1.4847
x1 = 0.806	1.4813
x1 = 0.8818	1.4788
x1 = 0.9637	1.4762

[2]
Settings	mass density, 293.15 K [kg/m3]	mass density, 298.15 K [kg/m3]	mass density, 303.15 K [kg/m3]	viscosity, 298.15 K [mPa·s]
x1 = 0.0721	–	–	–	0.7421
x1 = 0.088	919.03	914.58	910.12	–
x1 = 0.1511	948.33	943.7	939.06	–
x1 = 0.1615	–	–	–	0.725
x1 = 0.2426	992.67	987.75	982.82	–
x1 = 0.2437	–	–	–	0.7095
x1 = 0.3181	–	–	–	0.6959
x1 = 0.3249	1034.35	1029.15	1023.95	–
x1 = 0.3895	1068.4	1062.98	1057.54	–
x1 = 0.3957	–	–	–	0.6808
x1 = 0.4775	1116.88	1111.15	1105.38	–
x1 = 0.4824	–	–	–	0.6644
x1 = 0.5495	1158.43	1152.41	1146.34	–
x1 = 0.558	–	–	–	0.6498
x1 = 0.6346	–	–	–	0.6363
x1 = 0.6384	1212.22	1205.79	1199.32	–
x1 = 0.7132	1259.66	1252.89	1246.08	–
x1 = 0.7158	–	–	–	0.6224
x1 = 0.79	1310.86	1303.68	1296.47	–
x1 = 0.802	–	–	–	0.6081
x1 = 0.8776	1372.25	1364.6	1356.92	–
x1 = 0.8818	–	–	–	0.595
x1 = 0.9559	–	–	–	0.5836
x1 = 0.9583	1431.95	1423.79	1415.62	–
